Source: patent publication US11052089B2, “Methods for inhibiting alpha-v beta-3 expression on cancer stem cells and inhibiting progression to a cancer stem cell phenotype” (The Regents of the University of California, priority 2014, dated 2021)

Legend:
Type in all cases: cell-based
ITGB3 = ITGB3 induction in the presence of HAT inhibitor (FIG. 2)
Description: FIG. 2 graphically illustrates data showing that ITGB3 induction is suppressed in the presence of histone acetyltransferase (HAT) inhibitor anacardic acid.

[1] = test system: integrin β3 expression in HCC827 lung cancer cells; assay: Stress induced integrin β3 and stem cell gene expression, gels (FIG. 12); conditions: nutrient deprivation (without serum), 0.1 uM
Description: FIGS. 12A and 12B illustrate data showing the knockdown of P300 histone acetyl transferase (HAT), a known enzyme that targets H3K27ac, in HCC827 lung cancer cells. Histone acetyl transferase (acetyl p300) activity is increased during nutrient deprivation (without serum) leading to integrin β3 expression, which prevents stress-induced expression of integrin β3 and stem cell genes. Increase in histone acetyltransferase (HAT) p300 activity leads to upregulation of integrin β3. Loss of p300 histone acetyltransferase activity prevents the upregulation of integrin β3. Similar to chemical inhibition of HAT activity with anacardic acid at 0.1 uM concentration, a genetic approach was used to knockdown p300 histone acetyl transferase (HAT), a known enzyme that targets H3K27ac prevents expression of integrin β3 and stem cell genes.

[2] = test system: stress induced drug resistant phenotype; assay: Stress induced drug resistant phenotype, Erlotinib (FIG. 3C); conditions: serum, no serum, no serum and GSKJ4
Procedure: (§1) FIG. 3A, FIG. 3B, FIG. 3C and FIG. 3D graphically illustrate data showing that treatment with histone modification inhibitor(s) suppresses the stress induced drug resistant phenotype: FIG. 3A illustrates fold expression mRNA relative to serum after ITGB3 induction of control vehicle, 0.10 μM GSKJ4, and 0.25 μM GSKJ4; FIG. 3B illustrates fold expression mRNA relative to serum after Nanog induction of control vehicle, 0.10 μM GSKJ4, and 0.25 μM GSKJ4; FIG. 3C illustrates nM Erlotinib under conditions comprising serum, no serum and no serum and GSKJ4; and FIG. 3D illustrates fold expression mRNA relative to serum after ITGB3 induction with serum, no serum and no serum and GSKJ4.

[3] = test system: ITGB3, Nanog and OCT4 induction; assay: mRNA induction of ITGB3, Nanog, OCT4 with GSKJ-4 (FIG. 3, FIG. 11); conditions: relative to no serum
Procedure: as §1
FIG. 11A schematically illustrates, and FIG. 11B, FIG. 11C, FIG. 11D and FIG. 11E graphically illustrate that GSKJ-4, which targets histone demethylase JMJD3, suppresses β3 expression as well as pluripotent genes Nanog and OCT4, with the conclusion that GSKJ-4 suppresses ITGB3, Nanog and OCT4 induction by inhibiting JMJD3-targeted H3K27me3 demethylation; and FIG. 11B, FIG. 11C, FIG. 11D and FIG. 11E graphically illustrate fold induction mRNA relative to no serum as a function of GSKJ-4 suppression of ITGB3, Nanog and OCT4 induction, with FIG. 11B, FIG. 11C, FIG. 11D and FIG. 11E illustrating levels of ITGB3, Nanog, OCT4 and SOX2, respectively.

[4] = test system: lung cancer cells (HCC827); assay: 14 day assay for cell surface induction of integrin β3 by nutrient deprivation, cell sorting (FIG. 13, FIG. 14); conditions: HCC827, nutrient deprivation (no serum)

SMILES	ITGB3 induction (ITGB3)	downstream stem cell genes expression [1]	stress induced integrin β3 expression [1]	stress induced drug resistant phenotype [2]	ITGB3 (β3) induction, fold induction mRNA [3]	Nanog induction, fold induction mRNA [3]	OCT4 induction, fold induction mRNA [3]	expansion of integrin β3 expressing stem population [4]	formation of the heterodimeric αVβ3 cell surface expression [4]	induction of integrin β3 gene expression [4]
C=CC/C=C\C/C=C\CCCCCCCc1cccc(O)c1C(=O)O [anacardic acid, 2-hydroxy-6-[(8Z,11Z)-pentadeca-8,11,14-trienyl]benzoic acid]	suppressed	prevents	prevents	–	–	–	–	–	–	–
CCOC(=O)CCNc1cc(N2CCc3ccccc3CC2)nc(-c2ccccn2)n1 [GSKJ4]	–	–	–	suppresses	suppresses	suppresses	suppresses	prevents the expansion	prevents	prevents the induction
